In ChEMBL document CHEMBL3864149, “Design, synthesis and structure-activity relationships of novel phenylalanine-based amino acids as kainate receptors ligands” (Bioorg Med Chem Lett, 2016):

Key:
[1] = Displacement of [3H]-AMPA from AMPA receptor in rat brain membranes after 30 mins; type: cell membranes, Membrane
[2] = Displacement of [3H]-kainate from kainate receptor in rat brain membranes after 60 mins; type: cell membranes, Membrane
[3] = biological target: Glutamate receptor ionotropic, kainate 1 (Rattus norvegicus, UniProt P22756); experiment: Displacement of [3H]-NF608 from rat recombinant GluK1 receptor expressed in baculovirus infected insect Sf9 cell membranes after 60 mins
[4] = biological target: Glutamate receptor ionotropic, kainate 3 (Rattus norvegicus, UniProt P42264); experiment: Displacement of [3H]-kainate from rat recombinant GluK3 receptor expressed in baculovirus infected insect Sf9 cell membranes after 60 mins
[5] = biological target: Glutamate receptor ionotropic, kainate 2 (Homo sapiens, UniProt Q13002); experiment: Displacement of [3H]-kainate from human recombinant GluK2 receptor expressed in HEK293 cell membranes after 60 mins
[6] = biological target: T1, Glutamate receptor ionotropic, kainate 5 (Homo sapiens, UniProt Q16478); experiment: Displacement of [3H]-kainate from human recombinant GluK5 receptor expressed in HEK293 cell membranes after 60 mins
T1 sequence (Q16478 whole entry): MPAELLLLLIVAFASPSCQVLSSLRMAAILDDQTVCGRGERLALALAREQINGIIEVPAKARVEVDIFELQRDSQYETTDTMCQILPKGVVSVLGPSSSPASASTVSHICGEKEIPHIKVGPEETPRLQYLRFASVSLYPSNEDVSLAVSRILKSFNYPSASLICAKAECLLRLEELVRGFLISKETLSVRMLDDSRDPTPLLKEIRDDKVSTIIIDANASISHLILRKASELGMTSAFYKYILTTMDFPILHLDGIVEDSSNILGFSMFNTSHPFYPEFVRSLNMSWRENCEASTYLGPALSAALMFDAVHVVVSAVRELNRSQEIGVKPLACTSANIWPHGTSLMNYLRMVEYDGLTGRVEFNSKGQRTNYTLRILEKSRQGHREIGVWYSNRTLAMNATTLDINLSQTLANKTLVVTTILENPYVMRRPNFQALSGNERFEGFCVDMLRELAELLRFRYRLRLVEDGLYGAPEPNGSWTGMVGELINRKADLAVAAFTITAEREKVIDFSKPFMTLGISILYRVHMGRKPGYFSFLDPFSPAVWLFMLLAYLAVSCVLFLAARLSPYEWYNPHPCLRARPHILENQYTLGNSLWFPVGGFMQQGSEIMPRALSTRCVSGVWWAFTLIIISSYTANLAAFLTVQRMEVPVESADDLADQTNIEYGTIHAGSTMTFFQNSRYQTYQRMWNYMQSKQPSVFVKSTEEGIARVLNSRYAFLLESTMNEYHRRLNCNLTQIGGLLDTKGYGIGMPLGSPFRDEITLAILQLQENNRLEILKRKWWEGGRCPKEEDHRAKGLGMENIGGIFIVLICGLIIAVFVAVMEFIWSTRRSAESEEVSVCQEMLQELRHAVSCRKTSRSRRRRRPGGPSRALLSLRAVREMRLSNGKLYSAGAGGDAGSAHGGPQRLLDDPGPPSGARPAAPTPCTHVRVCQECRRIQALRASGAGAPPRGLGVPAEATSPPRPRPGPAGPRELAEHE

Rattus norvegicus = organism: Rattus norvegicus; experiment: Selectivity ratio of Ki for rat recombinant GluK3 receptor to Ki for rat recombinant GluK1 receptor
[7] = Displacement of [3H]-AMPA from AMPA receptor in rat brain membranes after 1 hr by liquid scintillation counting method; type: cell membranes, Membrane
[8] = Displacement of [3H]-kainate from kainate receptor in rat brain membranes after 1 hr by liquid scintillation counting method; type: cell membranes, Membrane

Chain of Glutamate receptor ionotropic, kainate 1 (P22756 whole entry): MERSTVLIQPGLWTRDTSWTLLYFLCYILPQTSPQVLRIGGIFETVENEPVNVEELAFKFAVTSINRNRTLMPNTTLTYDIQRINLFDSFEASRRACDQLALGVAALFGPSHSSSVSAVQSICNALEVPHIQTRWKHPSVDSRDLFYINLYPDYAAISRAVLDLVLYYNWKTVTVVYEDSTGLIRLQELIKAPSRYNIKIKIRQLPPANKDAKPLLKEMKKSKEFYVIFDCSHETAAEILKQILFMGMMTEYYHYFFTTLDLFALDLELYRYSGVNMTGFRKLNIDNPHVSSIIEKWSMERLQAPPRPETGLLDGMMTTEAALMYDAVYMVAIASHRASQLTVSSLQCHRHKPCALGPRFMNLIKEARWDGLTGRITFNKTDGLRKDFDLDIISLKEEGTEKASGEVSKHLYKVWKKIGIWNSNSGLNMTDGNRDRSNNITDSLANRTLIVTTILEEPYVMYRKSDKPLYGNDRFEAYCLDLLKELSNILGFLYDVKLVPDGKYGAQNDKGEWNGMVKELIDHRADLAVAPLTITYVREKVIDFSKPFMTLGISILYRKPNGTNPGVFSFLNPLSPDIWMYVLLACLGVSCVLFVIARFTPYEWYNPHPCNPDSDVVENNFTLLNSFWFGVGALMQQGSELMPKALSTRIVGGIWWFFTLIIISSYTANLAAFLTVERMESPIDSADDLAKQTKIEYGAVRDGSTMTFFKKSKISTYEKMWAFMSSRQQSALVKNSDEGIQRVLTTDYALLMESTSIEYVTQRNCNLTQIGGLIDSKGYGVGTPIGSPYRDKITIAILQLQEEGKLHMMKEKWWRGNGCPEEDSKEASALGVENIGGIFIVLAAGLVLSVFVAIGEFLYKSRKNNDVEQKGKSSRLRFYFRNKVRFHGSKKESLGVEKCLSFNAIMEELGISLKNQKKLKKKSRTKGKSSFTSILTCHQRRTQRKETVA
Chain of Glutamate receptor ionotropic, kainate 3 (P42264 whole entry): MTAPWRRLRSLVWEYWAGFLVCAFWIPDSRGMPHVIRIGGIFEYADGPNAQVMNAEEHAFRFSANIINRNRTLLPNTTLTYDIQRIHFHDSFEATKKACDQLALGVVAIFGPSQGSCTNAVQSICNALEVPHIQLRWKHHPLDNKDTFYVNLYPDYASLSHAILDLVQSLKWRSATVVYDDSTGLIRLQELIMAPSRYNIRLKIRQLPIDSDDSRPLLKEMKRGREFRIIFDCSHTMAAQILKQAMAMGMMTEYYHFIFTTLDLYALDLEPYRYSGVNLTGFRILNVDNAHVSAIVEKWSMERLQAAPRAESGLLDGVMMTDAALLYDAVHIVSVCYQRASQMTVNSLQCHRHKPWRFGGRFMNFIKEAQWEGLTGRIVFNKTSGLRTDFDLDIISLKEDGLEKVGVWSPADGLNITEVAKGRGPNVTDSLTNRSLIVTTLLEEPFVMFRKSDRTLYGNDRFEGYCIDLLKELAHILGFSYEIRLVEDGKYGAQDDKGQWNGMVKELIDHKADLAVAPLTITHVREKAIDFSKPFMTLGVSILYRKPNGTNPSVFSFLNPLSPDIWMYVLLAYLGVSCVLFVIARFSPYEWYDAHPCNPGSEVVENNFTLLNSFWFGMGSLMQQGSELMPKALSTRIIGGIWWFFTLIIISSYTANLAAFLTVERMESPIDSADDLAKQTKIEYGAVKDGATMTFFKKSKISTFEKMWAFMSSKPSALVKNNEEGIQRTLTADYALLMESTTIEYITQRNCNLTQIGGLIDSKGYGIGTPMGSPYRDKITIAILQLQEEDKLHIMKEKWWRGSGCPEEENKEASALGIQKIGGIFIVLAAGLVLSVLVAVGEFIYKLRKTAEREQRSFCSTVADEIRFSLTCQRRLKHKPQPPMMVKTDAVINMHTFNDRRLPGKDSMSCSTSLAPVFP
Chain of Glutamate receptor ionotropic, kainate 2 (Q13002 whole entry): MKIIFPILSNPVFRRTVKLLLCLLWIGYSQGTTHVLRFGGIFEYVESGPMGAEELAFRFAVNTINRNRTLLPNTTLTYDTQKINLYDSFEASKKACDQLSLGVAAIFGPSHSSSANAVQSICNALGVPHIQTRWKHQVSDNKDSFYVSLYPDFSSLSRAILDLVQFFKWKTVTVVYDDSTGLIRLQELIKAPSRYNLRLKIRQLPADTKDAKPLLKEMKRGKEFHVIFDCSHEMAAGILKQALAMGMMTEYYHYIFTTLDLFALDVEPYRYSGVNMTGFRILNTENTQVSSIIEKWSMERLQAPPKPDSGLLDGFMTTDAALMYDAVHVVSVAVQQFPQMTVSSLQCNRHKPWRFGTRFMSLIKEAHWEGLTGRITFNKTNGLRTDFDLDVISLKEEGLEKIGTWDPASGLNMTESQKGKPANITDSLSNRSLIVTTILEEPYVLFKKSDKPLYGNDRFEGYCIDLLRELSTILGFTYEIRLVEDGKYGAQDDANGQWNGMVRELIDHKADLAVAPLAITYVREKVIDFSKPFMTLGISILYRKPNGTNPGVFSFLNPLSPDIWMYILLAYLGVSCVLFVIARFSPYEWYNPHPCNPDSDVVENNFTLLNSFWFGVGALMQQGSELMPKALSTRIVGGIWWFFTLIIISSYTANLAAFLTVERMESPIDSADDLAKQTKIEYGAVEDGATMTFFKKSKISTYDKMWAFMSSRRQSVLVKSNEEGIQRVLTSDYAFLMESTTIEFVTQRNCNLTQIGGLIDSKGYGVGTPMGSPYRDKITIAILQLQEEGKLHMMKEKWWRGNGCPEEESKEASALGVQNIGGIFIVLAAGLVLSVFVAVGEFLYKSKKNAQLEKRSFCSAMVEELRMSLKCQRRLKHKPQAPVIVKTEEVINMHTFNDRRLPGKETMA

| SMILES | Ki [1] [µM] | Ki [2] [µM] | Ki ([3]; read-out: Ki) [µM] | Ki [4] [µM] | pKi [1] | Ki ([3]; read-out: pKi (converted)) [µM] | also measured |
| --- | --- | --- | --- | --- | --- | --- | --- |
| NC(Cc1ccc(Cl)c(-c2cccc(C(=O)O)c2)c1)C(=O)O (racemic) | > 100 | > 100 | 35 | > 100 |  |  |  |
| NC(Cc1cc(-c2cccc(C(=O)O)c2)cc([N+](=O)[O-])c1)C(=O)O (racemic) | 38 | > 100 | 32 | > 100 | 4.43 |  |  |
| O=C(O)[C@@H]1C[C@H]2C[C@@H](CN3CC(F)(F)C[C@H]3C(=O)O)CC[C@H]2CN1 |  |  |  |  |  |  | Ki [5]: 0.05 µM; Ki [6]: 8.9 µM |
| NC(Cc1cc(-c2cccc(C(=O)O)c2)c(Cl)c([N+](=O)[O-])c1)C(=O)O (racemic) | 62 | 32 | 6.1 | > 100 | 4.21 | 5.89 | pKi [2]: 4.5 |
| NC(Cc1cc(Cl)c(O)c(-c2cccc(C(=O)O)c2)c1)C(=O)O (racemic) | > 100 | > 100 | 5.5 | 11 |  |  | Ratio Ki (Rattus norvegicus): 2 |
| Nc1c(Cl)cc(CC(N)C(=O)O)cc1-c1cccc(C(=O)O)c1 (racemic) | 100 | > 100 | 4.9 | > 100 |  | 4.68 | Ratio Ki (Rattus norvegicus): 20 |
| NC(Cc1cccc(-c2cccc(C(=O)O)c2)c1)C(=O)O (centres undefined) |  |  |  | > 100 |  |  |  |
| NC(Cc1ccc([N+](=O)[O-])c(-c2cccc(C(=O)O)c2)c1)C(=O)O (racemic) | 65 | > 100 | 7.2 | 23 | 4.19 |  |  |
| CC(C)(C)c1onc(OCP(=O)(O)O)c1C[C@H](N)C(=O)O |  |  |  | > 1000 |  |  | IC50 [7]: 16 µM; IC50 [8]: > 100 µM |
| Nc1c(-c2cccc(C(=O)O)c2)cc(CC(N)C(=O)O)cc1[N+](=O)[O-] (racemic) | > 100 | > 100 | 7.5 | > 100 |  | 7.08 |  |
| Nc1ccc(CC(N)C(=O)O)cc1-c1cccc(C(=O)O)c1 (racemic) | > 100 | > 100 | 26 | > 100 |  |  |  |
| NC(Cc1cc(Cl)cc(-c2cccc(C(=O)O)c2)c1)C(=O)O (racemic) | 51 | > 100 | 5.7 | 25 | 4.31 | 5.5 |  |
| NC(Cc1cc(Cl)c(Cl)c(-c2cccc(C(=O)O)c2)c1)C(=O)O (centres undefined) |  |  |  | > 100 |  |  |  |
